Experimental data from patent US6890940B2, “Bis(2-aryl-5-pyridyl) derivatives” (Kowa Co., Ltd., priority 2001, dated 2005).
Counter-ions that a name gives are not always drawn. Like-named read-outs stand apart in the source and are kept apart here. Marks after values point to notes of the source that are not given here.

Tests used:
[1] = Solubility of each compound in water; type: physicochemical
Source text: Further, the solubility (%) of each compound in water was also estimated.

IgE antibody production = experiment: Evaluation of IgE antibody production inhibiting activity (mouse spleen B cells stimulated with LPS and IL-4, IgE in supernatant by ELISA); type: cell-based; settings: B-cell; mouse (Balb/C) spleen B cells, LPS + mouse IL-4, drug added Day 1, IgE in culture supernatant by ELISA
Experimental: Test 1 (Evaluation of IgE Antibody Production Inhibiting Activity)
From a mouse (Balb/C, male, 8 weeks old), the spleen was enucleated. The spleen was shredded in 10% FBS/RPMI 1640, and was then disintegrated into single cells through a 70-mesh screen. Those single cells were hemolyzed with Gey's solution, and using RPMI 1640 medium/25 mM HEPES/0.3% BSA, a spleen cell suspension (1×10^7 cells/mL) was prepared. After an aliquot of the suspension was reacted with a rat anti-mouse Thy-1.2 monoclonal antibody (product of Cedarlane Laboratories Limited) at 4° C. for 1 hour, centrifugation was conducted. Precipitated cells were suspended again (1×10^7 cells/mL, RPMI/HEPES/BSA). After the suspension was next reacted with a low-cytotoxic rabbit complement (product of Cedarlane Laboratories Limited) at 37° C. for 1 hour, dead cells were removed by specific gravity centrifugation using Lympholyte M (product of Cedarlane Laboratories Limited) so that a B cell fraction was obtained as viable cells. […]
The IgE antibody production inhibiting activity of each drug was calculated by adding the drug Day 1 of the incubation and assaying the quantity of IgE in the culture supernatant by ELISA after the incubation.

[2] = Solubility of each compound in water; type: physicochemical; settings: in 1M hydrochloric acid (footnote *)

SMILES | Solubility [1] | IC50 (IgE antibody production) | Solubility [2]
COc1cc(-c2ccc(N(C)CCN(C)CCN(C)c3ccc(-c4cc(OC)c(OC)c(OC)c4)nc3)cn2)cc(OC)c1OC [Example 42, N,N-Bis[N-[2-(3,4,5-trimethoxyphenyl)-5-pyridyl]-N-methyl-2-aminoethyl]methylamine trihydrochloride.] | 10% | 100 nM | –
COc1cc(-c2ccc(N(C)CCN(C)c3ccc(-c4cc(OC)c(OC)c(OC)c4)nc3)cn2)cc(OC)c1OC [Example 7, N,N′-Bis[2-(3,4,5-trimethoxyphenyl)-5-pyridyl]-N,N′-dimethylethylenediamine dimethanesulfonate] | 5% | 40 nM | –
COc1cc(-c2ccc(N3CCCN(c4ccc(-c5cc(OC)c(OC)c(OC)c5)nc4)CC3)cn2)cc(OC)c1OC [Example 30, 1,4-Bis[2-(3,4,5-trimethoxyphenyl)-5-pyridyl]hexahydro-1,4-diazepine dimethanesulfonate] | 0.1% | 100 nM | –
COc1cc(-c2ccc(N(C)CC(O)CN(C)c3ccc(-c4cc(OC)c(OC)c(OC)c4)nc3)cn2)cc(OC)c1OC [Example 41, 2-hydroxy-N,N′-bis[2-(3,4,5-trimethoxyphenyl)-5-pyridyl]-N,N′-dimethyl-1,3-propanediamine] | – | 50 nM | 0.1* %
COc1cc(-c2ccc(N(C)CCCN(C)CCCN(C)c3ccc(-c4cc(OC)c(OC)c(OC)c4)nc3)cn2)cc(OC)c1OC [Example 43, N,N-Bis[N-[2-(3,4,5-trimethoxyphenyl)-5-pyridyl]-N-methyl-3-aminopropyl]methylamine] | – | 100 nM | 10* %
COc1cc(-c2ccc(N(C)CCCN(C)CCCN(C)c3ccc(-c4cc(OC)c(OCC(F)(F)F)c(OC)c4)nc3)cn2)cc(OC)c1OCC(F)(F)F [Example 57, N,N-Bis[N-[2-(3,5-dimethoxy-4-(2,2,2-trifluoroethoxy)phenyl]-5-pyridyl]-N-methyl-3-aminopropyl]methylamine trihydrochloride] | 1% | 100 nM | –
COc1cc(-c2ccc(N(C)CCCN(C)c3ccc(-c4cc(OC)c(OC)c(OC)c4)nc3)cn2)cc(OC)c1OC [Example 37, N,N′-Bis[2-(3,4,5-trimethoxyphenyl)-5-pyridyl]-N,N′-dimethyl-1,3-propanediamine dimethanesulfonate] | 10% | 100 nM | –
CCN(CCN(CC)c1ccc(-c2cc(OC)c(OC)c(OC)c2)nc1)c1ccc(-c2cc(OC)c(OC)c(OC)c2)nc1 [Example 36, N,N′-Bis[2-(3,4,5-trimethoxyphenyl)-5-pyridyl]-N,N′-diethylethylenediamine dimethanesulfonate] | 10% | 30 nM | –
COc1cc(-c2ccc(N(C)CCN(C)c3ccc(-c4cc(OC)c(O)c(OC)c4)nc3)cn2)cc(OC)c1O [Example 14, N,N′-Bis[2-(4-hydroxy-3,5-dimethoxyphenyl)-5-pyridyl]-N,N′-dimethylethylenediamine dimethanesulfonate] | 0.1% | 40 nM | –
COc1cc(-c2ccc(NCCOCCNc3ccc(-c4cc(OC)c(OC)c(OC)c4)nc3)cn2)cc(OC)c1OC [Example 44, Bis[N-[2-(3,4,5-trimethoxyphenyl)-5-pyridyl]-2-aminoethyl]ether dimethanesulfonate] | 10% | 100 nM | –
COc1cc(-c2ccc(N(C)CC(C)(C)CN(C)c3ccc(-c4cc(OC)c(OC)c(OC)c4)nc3)cn2)cc(OC)c1OC [Example 39, N,N′-Bis[2-(3,4,5-trimethoxyphenyl)-5-pyridyl]-N,N′,2,2-tetramethyl-1,3-propanediamine dimethanesulfonate] | 10% | 80 nM | –
COc1cc(-c2ccc(N3CCN(c4ccc(-c5cc(OC)c(OC)c(OC)c5)nc4)C(CN(C)C)C3)cn2)cc(OC)c1OC (stereo not drawn) [Example 47, 2-(Dimethylamino)methyl-1,4-bis[2-(,3,4,5-trimethoxyphenyl)-5-pyridyl]piperazine trihydrochloride] | 0.1% | 50 nM | –
